Test results reported in ChEMBL document CHEMBL1201862, “PubChem BioAssay data set” (2004).
Calls of active or inactive are those of the source.

Legend:
[1] = Trypanosoma cruzi growth suppression in host cells – NIH3T3 host cells, beta-gal luminescence, confirmation (AID 2044); type: functional, cell-based;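 further: intracellular parasites grown in NIH/3T3 mouse fibroblasts as host cells; luminescent beta-galactosidase reporter signal from transgenic T. cruzi replicating inside host cells; inhibitors lower the luminescence signal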
[2] = molecular target: T1, Ubiquitin-conjugating enzyme E2 N (Homo sapiens, UniProt P61088); type: functional;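 further: Dose-response confirmation in a TR-FRET assay detecting UBC13-driven polyubiquitin chain formation, inhibition measured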
T1 sequence (P61088 whole entry): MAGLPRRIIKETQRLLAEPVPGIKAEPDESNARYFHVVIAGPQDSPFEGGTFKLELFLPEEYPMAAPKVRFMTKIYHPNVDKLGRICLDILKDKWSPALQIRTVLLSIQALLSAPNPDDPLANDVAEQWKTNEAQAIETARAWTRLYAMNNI

INS1 = assay: INS-1E survival protection against cytokine death – cell-based, luminescence, retest, dose response (AID 449756); type: functional; conditions: Rattus norvegicus;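 further: cell death triggered by IL-1 beta plus TNF-alpha plus IFN-gamma mixture; protective hits raise ATP signal compared with cytokine alone wells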
[3] = molecular target: Protein-tyrosine kinase 2-beta (Homo sapiens, UniProt Q14289);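 further: potency of inhibitors of PYK2 kinase phosphorylation of poly-GT substrate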
Chain of Protein-tyrosine kinase 2-beta (Q14289 whole entry): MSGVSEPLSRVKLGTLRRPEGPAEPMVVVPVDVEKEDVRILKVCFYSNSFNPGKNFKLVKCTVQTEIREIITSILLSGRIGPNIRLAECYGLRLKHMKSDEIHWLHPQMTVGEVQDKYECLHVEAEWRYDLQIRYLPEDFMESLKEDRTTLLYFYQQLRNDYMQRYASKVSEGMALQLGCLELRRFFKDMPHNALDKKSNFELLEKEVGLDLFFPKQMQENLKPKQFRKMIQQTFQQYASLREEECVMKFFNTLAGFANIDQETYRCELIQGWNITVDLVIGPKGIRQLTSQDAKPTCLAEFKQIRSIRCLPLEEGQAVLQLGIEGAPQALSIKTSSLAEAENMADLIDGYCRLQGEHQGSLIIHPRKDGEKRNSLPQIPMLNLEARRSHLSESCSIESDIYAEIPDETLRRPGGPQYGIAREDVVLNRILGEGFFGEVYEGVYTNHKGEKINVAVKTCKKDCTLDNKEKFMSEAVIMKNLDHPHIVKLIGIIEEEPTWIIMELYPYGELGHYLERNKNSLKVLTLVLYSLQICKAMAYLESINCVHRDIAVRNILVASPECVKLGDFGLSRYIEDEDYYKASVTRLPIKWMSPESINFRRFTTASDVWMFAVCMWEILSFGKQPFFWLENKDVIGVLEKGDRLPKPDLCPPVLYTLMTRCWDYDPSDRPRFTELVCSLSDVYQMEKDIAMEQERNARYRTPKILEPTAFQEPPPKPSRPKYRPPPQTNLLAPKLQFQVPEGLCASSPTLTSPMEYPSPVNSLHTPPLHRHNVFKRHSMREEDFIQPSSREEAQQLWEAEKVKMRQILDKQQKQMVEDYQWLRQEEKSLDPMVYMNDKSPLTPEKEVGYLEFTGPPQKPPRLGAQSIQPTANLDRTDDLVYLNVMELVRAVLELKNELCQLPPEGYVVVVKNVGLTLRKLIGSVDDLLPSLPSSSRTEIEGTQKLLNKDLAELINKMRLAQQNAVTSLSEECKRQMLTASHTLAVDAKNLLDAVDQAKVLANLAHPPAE

[4] = molecular target: Serine/threonine-protein phosphatase (Homo sapiens, UniProt Q9BPW0); assay: inhibition of protein phosphatase 5 activity – biochemical, fluorescence, dose response (AID 2395)
Chain of Serine/threonine-protein phosphatase (Q9BPW0 whole entry): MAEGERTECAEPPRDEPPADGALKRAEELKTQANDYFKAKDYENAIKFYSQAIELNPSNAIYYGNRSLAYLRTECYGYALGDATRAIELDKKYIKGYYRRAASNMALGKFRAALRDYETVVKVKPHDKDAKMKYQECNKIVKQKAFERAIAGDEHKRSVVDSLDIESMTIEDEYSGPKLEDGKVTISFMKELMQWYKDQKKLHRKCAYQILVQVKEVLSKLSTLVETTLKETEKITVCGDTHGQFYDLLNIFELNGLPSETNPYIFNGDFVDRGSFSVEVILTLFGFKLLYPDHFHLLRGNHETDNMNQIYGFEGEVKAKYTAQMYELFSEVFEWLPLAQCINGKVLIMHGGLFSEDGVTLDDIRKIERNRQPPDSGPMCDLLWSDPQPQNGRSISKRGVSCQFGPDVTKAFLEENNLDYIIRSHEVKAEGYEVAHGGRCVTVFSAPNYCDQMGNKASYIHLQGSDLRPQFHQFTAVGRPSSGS

Cysteine protease ATG4B = molecular target: T2, Cysteine protease ATG4B (Homo sapiens, UniProt Q9Y4P1); type: functional;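 further: Fluorescence-based dose-response confirmation assay measuring inhibition of ATG4B activity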
T2 sequence (Q9Y4P1 whole entry): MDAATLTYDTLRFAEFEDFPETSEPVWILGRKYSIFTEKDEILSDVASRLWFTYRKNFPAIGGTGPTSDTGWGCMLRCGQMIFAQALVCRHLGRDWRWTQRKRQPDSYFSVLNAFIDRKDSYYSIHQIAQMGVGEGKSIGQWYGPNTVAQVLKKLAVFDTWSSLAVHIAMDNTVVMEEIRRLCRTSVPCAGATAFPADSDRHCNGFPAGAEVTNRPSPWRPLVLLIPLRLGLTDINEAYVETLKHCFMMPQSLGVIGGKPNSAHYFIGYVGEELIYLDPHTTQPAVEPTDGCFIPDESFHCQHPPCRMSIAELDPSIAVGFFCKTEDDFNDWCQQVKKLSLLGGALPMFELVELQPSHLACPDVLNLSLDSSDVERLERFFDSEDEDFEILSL

Caspase-6 = molecular target: T3, Caspase-6 (Homo sapiens, UniProt P55212); assay: inhibition of CASP6 peptide cleavage – biochemical, VEID-R110 fluorescence, cherry-pick, dose response (AID 720632)
T3 sequence (P55212 whole entry): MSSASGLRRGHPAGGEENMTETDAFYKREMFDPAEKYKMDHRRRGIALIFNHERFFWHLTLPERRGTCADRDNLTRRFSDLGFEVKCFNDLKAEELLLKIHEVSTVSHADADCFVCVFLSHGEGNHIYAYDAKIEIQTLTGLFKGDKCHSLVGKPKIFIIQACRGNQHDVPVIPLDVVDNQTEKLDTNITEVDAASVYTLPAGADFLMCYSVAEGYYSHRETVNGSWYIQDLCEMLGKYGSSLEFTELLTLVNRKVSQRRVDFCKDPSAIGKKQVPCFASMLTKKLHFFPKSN

[5] = molecular target: T4, Histone-lysine N-methyltransferase NSD2 (Homo sapiens, UniProt O96028); type: biochemical
T4 sequence (O96028 whole entry): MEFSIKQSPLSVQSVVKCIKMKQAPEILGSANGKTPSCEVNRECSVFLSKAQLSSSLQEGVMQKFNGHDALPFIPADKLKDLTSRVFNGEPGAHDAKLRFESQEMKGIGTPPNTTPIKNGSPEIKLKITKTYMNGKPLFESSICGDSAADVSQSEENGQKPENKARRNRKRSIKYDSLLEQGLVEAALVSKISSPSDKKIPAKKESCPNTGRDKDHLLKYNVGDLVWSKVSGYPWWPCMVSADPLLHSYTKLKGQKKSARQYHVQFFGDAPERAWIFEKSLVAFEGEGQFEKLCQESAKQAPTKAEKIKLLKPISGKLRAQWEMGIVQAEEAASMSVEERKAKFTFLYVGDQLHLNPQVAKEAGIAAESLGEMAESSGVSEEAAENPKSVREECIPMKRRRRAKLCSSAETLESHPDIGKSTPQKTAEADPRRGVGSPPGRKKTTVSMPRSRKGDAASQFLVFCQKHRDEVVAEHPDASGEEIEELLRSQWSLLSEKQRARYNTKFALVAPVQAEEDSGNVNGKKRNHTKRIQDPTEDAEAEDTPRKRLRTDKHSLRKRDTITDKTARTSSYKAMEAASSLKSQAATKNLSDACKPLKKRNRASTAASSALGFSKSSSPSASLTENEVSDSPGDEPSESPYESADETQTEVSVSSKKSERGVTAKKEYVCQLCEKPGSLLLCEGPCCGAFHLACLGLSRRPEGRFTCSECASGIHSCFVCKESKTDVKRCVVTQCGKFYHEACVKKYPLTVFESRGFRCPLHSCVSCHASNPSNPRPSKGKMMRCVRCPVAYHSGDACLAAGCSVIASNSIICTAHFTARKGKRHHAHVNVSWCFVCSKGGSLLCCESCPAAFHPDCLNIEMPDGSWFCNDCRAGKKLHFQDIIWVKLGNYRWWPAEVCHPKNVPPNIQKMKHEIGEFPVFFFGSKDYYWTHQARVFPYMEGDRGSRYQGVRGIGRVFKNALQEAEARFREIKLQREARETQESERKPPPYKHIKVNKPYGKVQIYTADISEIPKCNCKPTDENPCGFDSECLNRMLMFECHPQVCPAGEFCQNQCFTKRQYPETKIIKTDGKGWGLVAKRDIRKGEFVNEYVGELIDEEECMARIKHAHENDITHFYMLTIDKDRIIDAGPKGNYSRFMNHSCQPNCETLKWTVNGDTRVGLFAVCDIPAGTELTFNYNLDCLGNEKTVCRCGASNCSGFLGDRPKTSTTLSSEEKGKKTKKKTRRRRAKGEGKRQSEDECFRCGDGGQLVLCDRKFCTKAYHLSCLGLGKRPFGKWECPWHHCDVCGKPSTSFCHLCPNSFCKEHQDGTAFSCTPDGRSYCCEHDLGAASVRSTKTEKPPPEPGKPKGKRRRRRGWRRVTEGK

## CCCCCCCCCCOC(=O)C[n+]1c(COc2ccccc2C)n(C)c2ccccc21
[1]
  EC50: 0.68 µM (active)
[2]
  IC50: > 20 µM (inactive)
INS1
  AC50: 2.16 µM (active)

## Oc1nc(Nc2ccccc2)cc2ccccc12
[3]
  IC50: > 69.5 µM (not active)
[4]
  IC50: 31.6 µM (not active)
Cysteine protease ATG4B
  IC50: 9.22 µM (active)

## COc1cc(OC)c(-c2c3cc(O)c(=O)cc-3oc3cc(O)c(O)cc23)cc1OC
Caspase-6
  AC50: 0.0367 µM (active)
[5]
  AC50: 0.282 µM (active)
